In patent US20240025862A1, “SUBSTITUTED N-PHENYLURACILS AND SALTS THEREOF, AND USE THEREOF AS HERBICIDAL ACTIVE SUBSTANCES” (Bayer Aktiengesellschaft, priority 2020, published 2024):

Assays:
Format in all cases: in vivo
[1] = system: Triticum aestivum (TRZAS); experiment: Post-emergence crop plant compatibility, greenhouse pot test; details: vs untreated controls
Summary of the method: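 Values are visual % damage versus untreated controls (100% = plants died) about 3 weeks after treatment. Plants in sandy loam were sprayed at the one-leaf stage, 2–3 weeks after sowing, with aqueous WP/EC preparations plus 0.5% additive at 600 l/ha; a/b/c mark different dose levels.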

[2] = system: Polygonum convolvulus (POLCO); experiment: Post-emergence herbicidal action, greenhouse pot test
Summary of the method: (§1)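 Activity was scored by eye about 3 weeks after treatment against untreated plants, where 100% means dead plants and 0% means no difference. Plants at the one-leaf stage received a foliar spray of WP or EC formulations in water plus 0.5% additive (600 l/ha, up to 20 g/ha). Plants were grown in sandy loam pots in a greenhouse for 2–3 weeks before spraying.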

[3] = system: Avena fatua (AVEFA); experiment: as above; details: 20 g/ha, rated visually after about 3 weeks vs untreated controls, 100% = plants have died
Summary of the method: as §1

[4] = system: Abutilon theophrasti (ABUTH); experiment: as above; details: rated visually after about 3 weeks vs untreated controls, 100% = plants have died
Summary of the method: as §1

[5] = system: Amaranthus retroflexus (AMARE); experiment: as above; details: rated visually after about 3 weeks vs untreated controls, 100% = plants have died
Summary of the method: as §1

[6] = system: Veronica persica (VERPE); experiment: as above
Summary of the method: as §1

[7] = system: Pharbitis purpurea (PHBPU); experiment: as above
Summary of the method: as §1

[8] = system: Viola tricolor (VIOTR); experiment: as above
Summary of the method: as §1

[9] = system: Setaria viridis (SETVI); experiment: Post-emergence herbicidal action, greenhouse pot test (also comparative test C); details: for Post-emergence action against SETVI: 20 g/ha
Summary of the method: (§2)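 Green parts of one-leaf-stage plants are sprayed at 600 l/ha with formulated compound plus 0.5% additive, then kept under optimum greenhouse conditions for about 3 weeks. Damage is scored visually, where 100% means dead plants and 0% means no difference from controls.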

[10] = system: Alopecurus myosuroides (ALOMY); experiment: as above; details: rated visually after about 3 weeks vs untreated controls, 100% = plants have died
Summary of the method: as §2

[11] = system: Echinochloa crus-galli (ECHCG); experiment: as above
Summary of the method: as §2

[12] = system: Matricaria inodora (MATIN); experiment: as above
Summary of the method: as §2

[13] = system: Oryza sativa (ORYSA); experiment: Post-emergence crop plant compatibility, greenhouse pot test (also comparative test C); details: for Post-emergence action against ORYSA (crop plant compatibility): vs untreated controls
Summary of the method: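 Visual damage versus untreated plants (0% = like control, 100% = plants died) was scored about 3 weeks after a post-emergence spray in greenhouse pots. Treatment: one-leaf stage, WP or EC in water at 600 l/ha with 0.5% additive; a/b/c mark different dosages on the same crop.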

Row | Structure (SMILES) | Post-emergence action against TRZAS (crop plant compatibility) ([1]; 1.25 g/ha) | Post-emergence action against POLCO in % ([2]; dosage 5 g/ha) | Post-emergence action against POLCO in % ([2]; dosage 20 g/ha) | Post-emergence action at 20 g/ha against AVEFA in % [3] | Post-emergence action at 5 g/ha against ABUTH in % [4] | Post-emergence action at 20 g/ha against ABUTH in % [4] | Post-emergence action at 1.25 g/ha against AMARE in % [5] | Post-emergence action at 5 g/ha against AMARE in % [5] | Post-emergence action at 20 g/ha against AMARE in % [5] | Post-emergence action against VERPE ([6]; 5 g/ha) | Post-emergence action against VERPE ([6]; 20 g/ha) | Post-emergence action against PHBPU in % ([7]; dosage 5 g/ha) | Post-emergence action against PHBPU in % ([7]; dosage 20 g/ha) | Post-emergence action against VIOTR ([8]; 1.25 g/ha) | Post-emergence action against VIOTR ([8]; 5 g/ha) | Post-emergence action against VIOTR ([8]; 20 g/ha) | Post-emergence action against SETVI [9] | Post-emergence action against SETVI in % ([9]; dosage 1.25 g/ha) | Post-emergence action against SETVI in % ([9]; dosage 5 g/ha) | Post-emergence action at 5 g/ha against ALOMY in % [10] | also measured
1 | Cn1c(C(F)(F)F)cc(=O)n(-c2cc(Oc3ccccc3OCC(=O)OCC[N+](=O)[O-])c(Br)cc2F)c1=O [I.8-183] | 0% | 100% | 100% | 100% | 100% | 100% | 100% | 100% | 100% | 100% | 100% | 100% | 100% | 100% | 100% | 100% | 100% | 100% | 100% | 80% | Post-emergence action against TRZAS (crop plant compatibility) ([1]; 5 g/ha): 20%; Post-emergence action at 20 g/ha against ALOMY in % [10]: 100%; Post-emergence action against ECHCG in % ([11]; dosage 5 g/ha): 100%; Post-emergence action against ECHCG in % ([11]; dosage 20 g/ha): 100%; Post-emergence action against MATIN in % ([12]; dosage 5 g/ha): 80%; Post-emergence action against MATIN in % ([12]; dosage 20 g/ha): 100%; Post-emergence action against ORYSA (crop plant compatibility) ([13]; 1.25 g/ha): 0%; Post-emergence action against ORYSA (crop plant compatibility) ([13]; 5 g/ha): 0%; Post-emergence action against ORYSA in % ([13]; 20 g/ha, crop plant compatibility): 0%
2 | CCOCCOC(=O)COc1ccccc1Oc1cc(-n2c(=O)cc(C(F)(F)F)n(C)c2=O)c(F)cc1C#N [I.9-2] | 20% | 100% | 100% | 90% | 100% | 100% | 100% | 100% | 100% | 100% | 100% | 100% | 100% | 100% | 100% | 100% | 100% | 100% | 100% | 80% | Post-emergence action at 1.25 g/ha against ABUTH in % ([4]; 1.25 g/ha): 100%; Post-emergence action against VERPE ([6]; 1.25 g/ha): 100%; Post-emergence action against PHBPU in % ([7]; dosage 1.25 g/ha): 100%; Post-emergence action at 20 g/ha against ALOMY in % [10]: 100%; Post-emergence action at 1.25 g/ha against ECHCG in % ([11]; 1.25 g/ha, rated visually after about 3 weeks vs untreated controls, 100% = plants have died): 80%; Post-emergence action against ECHCG in % ([11]; dosage 5 g/ha): 100%; Post-emergence action against ECHCG in % ([11]; dosage 20 g/ha): 100%; Post-emergence action against MATIN in % ([12]; dosage 5 g/ha): 100%; Post-emergence action against MATIN in % ([12]; dosage 20 g/ha): 100%; Post-emergence action against ORYSA (crop plant compatibility) ([13]; 1.25 g/ha): 0%
